Measurements reported in US20250171438A1 (Agios Pharmaceuticals, Inc., priority 2022, published 2025).

Molecular target: T1, human PAH with the R408W mutation (Homo sapiens, UniProt P00439, R408W)
T1 construct: expressed in transfected cells
T1 sequence (P00439 1-452 R408W): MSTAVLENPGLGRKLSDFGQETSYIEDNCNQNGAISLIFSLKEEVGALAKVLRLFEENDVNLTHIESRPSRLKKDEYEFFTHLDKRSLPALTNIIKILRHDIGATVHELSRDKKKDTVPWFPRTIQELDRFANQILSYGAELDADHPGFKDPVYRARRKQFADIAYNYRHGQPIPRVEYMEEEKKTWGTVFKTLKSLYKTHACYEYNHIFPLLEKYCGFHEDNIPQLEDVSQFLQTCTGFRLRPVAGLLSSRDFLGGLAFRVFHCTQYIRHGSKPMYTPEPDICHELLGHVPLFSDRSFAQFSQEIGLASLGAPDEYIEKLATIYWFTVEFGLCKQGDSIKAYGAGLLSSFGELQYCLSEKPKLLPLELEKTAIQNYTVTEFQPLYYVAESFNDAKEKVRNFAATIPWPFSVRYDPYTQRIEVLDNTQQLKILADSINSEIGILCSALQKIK
Test: Cell Based Phenylalanine Flux Assay
Set-up: scale not given here
Conditions: A375 cells expressing human R408W PAH; 24 hrs compound incubation; 13C-Tyrosine by LC-MS; average where tested multiple times; read-out: AC50

First: CC(C)(O)c1nc(C(F)F)c(C(=O)N2CCc3[nH]cnc3[C@H]2c2nc3c(F)cccc3s2)s1 [Example 2085, (S)-(4-(difluoromethyl)-2-(2-hydroxypropan-2-yl)thiazol-5-yl)(4-(4-fluorobenzo[d]thiazol-2-yl)-6,7-dihydro-1H-imidazo[4,5-c]pyridin-5(4H)-yl)methanone]
Second: Cc1nc(C(C)(C)C)oc1C(=O)N1CCc2[nH]cnc2[C@H]1c1nc2c(F)cccc2s1 [Example 1433]
The AC50 of the first is lower: under 500 nM for the first, 500 to 1000 nM for the second.

Compared with CC(C)(O)c1nc(C2CC2)c(C(=O)N2CCc3[nH]cnc3[C@@H]2c2nc3ccccc3s2)o1 [Example 1544, (R)-(4-(benzo[d]thiazol-2-yl)-6,7-dihydro-1H-imidazo[4,5-c]pyridin-5(4H)-yl)(4-cyclopropyl-2-(2-hydroxypropan-2-yl)oxazol-5-yl)methanone], CC(C)(O)c1nc(C#N)c(C(=O)N2CCc3[nH]cnc3[C@H]2c2nc3ccccc3s2)o1 [Example 1697, (S)-5-(4-(benzo[d]thiazol-2-yl)-4,5,6,7-tetrahydro-1H-imidazo[4,5-c]pyridine-5-carbonyl)-2-(2-hydroxypropan-2-yl)oxazole-4-carbonitrile] is lower in AC50: 1000 to 5000 nM for the first, 500 to 1000 nM for the second.

O=C(c1oc(CCN2CC(F)C2)nc1C(F)(F)F)N1CCc2[nH]cnc2[C@H]1c1nc2c(F)cccc2s1 [Example 1665] and O=C(c1oc(CCC2CC2)nc1C(F)(F)F)N1CCc2[nH]cnc2[C@H]1c1nc2c(F)cccc2s1 [Example 1625] cannot be ordered by AC50: under 500 nM for the first, under 500 nM for the second.

Cn1cc(-c2ncc(C(=O)N3CCc4[nH]cnc4[C@@H]3c3nc4c(F)cccc4s3)o2)cn1 [Example 1345, (R)-(4-(4-fluorobenzo[d]thiazol-2-yl)-6,7-dihydro-1H-imidazo[4,5-c]pyridin-5(4H)-yl)(2-(1-methyl-1H-pyrazol-4-yl)oxazol-5-yl)methanone] and Cc1nc(C2CC2)oc1C(=O)N1CCc2[nH]cnc2[C@@H]1c1nc2c(F)cccc2s1 [Example 1528, (R)-(2-cyclopropyl-4-methyloxazol-5-yl)(4-(4-fluorobenzo[d]thiazol-2-yl)-6,7-dihydro-1H-imidazo[4,5-c]pyridin-5(4H)-yl)methanone] fall in the same range of AC50: 1000 to 5000 nM for the first, 1000 to 5000 nM for the second.

First: O=C(c1nccs1)N1CCc2[nH]cnc2[C@H]1c1nc2cccc(Br)c2s1 [Example 1200, (S)-(4-(7-bromobenzo[d]thiazol-2-yl)-6,7-dihydro-1H-imidazo[4,5-c]pyridin-5(4H)-yl)(thiazol-2-yl)methanone]
Second: O=C(c1cnco1)N1CCc2[nH]cnc2[C@H]1c1nc2cccc(F)c2s1 [Example 1247, (S)-(4-(7-fluorobenzo[d]thiazol-2-yl)-6,7-dihydro-1H-imidazo[4,5-c]pyridin-5(4H)-yl)(oxazol-5-yl)methanone]
The AC50 of the first is lower: 500 to 1000 nM for the first, 1000 to 5000 nM for the second.

O=C(c1cnn2ccc(Br)cc12)N1CCc2[nH]cnc2[C@H]1c1nc2cc(F)ccc2s1 [Example 1281] and CC(C)(F)c1ccc2c(C(=O)N3CCc4[nH]cnc4[C@H]3c3nc4c(F)cccc4s3)cnn2c1 [Example 1489, (S)-(4-(4-fluorobenzo[d]thiazol-2-yl)-6,7-dihydro-1H-imidazo[4,5-c]pyridin-5(4H)-yl)(6-(2-fluoropropan-2-yl)pyrazolo[1,5-a]pyridin-3-yl)methanone] fall in the same range of AC50: 500 to 1000 nM for the first, 500 to 1000 nM for the second.

Compared with Cc1cc(F)ccc1-c1nnc(C(=O)N2CCc3[nH]cnc3[C@@H]2c2nc3ccccc3s2)o1 [Example 1784, (R)-(4-(benzo[d]thiazol-2-yl)-6,7-dihydro-1H-imidazo[4,5-c]pyridin-5(4H)-yl)(5-(4-fluoro-2-methylphenyl)-1,3,4-oxadiazol-2-yl)methanone], O=C(c1oc(-c2ccccn2)nc1C1CC1)N1CCc2[nH]cnc2[C@H]1c1nc2ccccc2s1 [Example 1515] is lower in AC50: over 5000 nM for the first, under 500 nM for the second.

O=C(CC1CC1)N1CCc2[nH]cnc2[C@@H]1c1nc2ccc(F)cc2s1 [Example 1118, (R)-2-cyclopropyl-1-(4-(6-fluorobenzo[d]thiazol-2-yl)-6,7-dihydro-1H-imidazo[4,5-c]pyridin-5(4H)-yl)ethanone] and O=C(C1CC1)N1CCc2[nH]cnc2[C@@H]1c1nc2ccc(Cl)cc2[nH]1 [Example 959, (R)-(4-(6-chloro-1H-benzo[d]imidazol-2-yl)-6,7-dihydro-1H-imidazo[4,5-c]pyridin-5(4H)-yl)(cyclopropyl)methanone] cannot be ordered by AC50: over 5000 nM for the first, over 5000 nM for the second.

First: O=C(c1ocnc1-c1ccccc1)N1CCc2[nH]cnc2[C@H]1c1nc2c(F)cccc2s1 [Example 2177, (S)-(4-(4-fluorobenzo[d]thiazol-2-yl)-6,7-dihydro-1H-imidazo[4,5-c]pyridin-5(4H)-yl)(4-phenyloxazol-5-yl)methanone]
Second: Cc1nc(CCN(C)C)oc1C(=O)N1CCc2[nH]cnc2[C@@H]1c1nc2ccccc2s1 [Example 1660, (R)-(4-(benzo[d]thiazol-2-yl)-6,7-dihydro-1H-imidazo[4,5-c]pyridin-5(4H)-yl)(2-(2-(dimethylamino)ethyl)-4-methyloxazol-5-yl)methanone]
The AC50 of the first is lower: 500 to 1000 nM for the first, over 5000 nM for the second.

Same assay, conditions: A375 cells expressing human R408W PAH; 24 hrs with compound; 13C-Tyrosine by LC-MS; average where tested multiple times

With COCCc1ccc2c(C(=O)N3CCc4[nH]cnc4C3c3nc4ccccc4s3)c(C(F)F)nn2c1 (centres unmarked) the AC50 was “E, E”.

Same assay, conditions: A375 cells expressing human R408W PAH; 24 hrs with compound; 13C-Tyrosine by LC-MS; average where tested multiple times; read-out: AC50

O=C(Cc1cnn2ccccc12)N1CCc2[nH]cnc2[C@H]1c1nc2ccccc2[nH]1 [(S)-1-(4-(1H-benzo[d]imidazol-2-yl)-6,7-dihydro-1H-imidazo[4,5-c]pyridin-5(4H)-yl)-2-(pyrazolo[1,5-a]pyridin-3-yl)ethanone] and O=C(c1ccno1)N1CCc2[nH]cnc2[C@H]1c1nc2ccccc2[nH]1 [(S)-(4-(1H-benzo[d]imidazol-2-yl)-6,7-dihydro-1H-imidazo[4,5-c]pyridin-5(4H)-yl)(isoxazol-5-yl)methanone] fall in the same range of AC50: 1000 to 5000 nM for the first, 1000 to 5000 nM for the second.

Compared with O=C(C1CN(c2ccccn2)C1)N1CCc2[nH]cnc2C1c1nc2ccccc2s1 (centres unmarked), O=C(c1cc2ccccn2c1)N1CCc2[nH]cnc2C1c1nc2ccccc2s1 (centres unmarked) is higher in AC50: 1000 to 5000 nM for the first, over 5000 nM for the second.

O=C(c1cscn1)N1CCc2[nH]cnc2[C@H]1c1nc2ccccc2[nH]1 [(S)-(4-(1H-benzo[d]imidazol-2-yl)-1,4,6,7-tetrahydro-5H-imidazo[4,5-c]pyridin-5-yl)(thiazol-4-yl)methanone] and CCc1nnc(CCC(=O)N2CCc3[nH]cnc3[C@H]2c2nc3ccccc3[nH]2)s1 [(S)-1-(4-(1H-benzo[d]imidazol-2-yl)-1,4,6,7-tetrahydro-5H-imidazo[4,5-c]pyridin-5-yl)-3-(5-ethyl-1,3,4-thiadiazol-2-yl)propan-1-one] fall in the same range of AC50: 1000 to 5000 nM for the first, 1000 to 5000 nM for the second.

First: Cn1nc(CC#N)nc1C(=O)N1CCc2[nH]cnc2[C@H]1c1nc2ccccc2s1 (single isomer, unassigned)
Second: Cc1nnc(CC(=O)N2CCc3[nH]cnc3C2c2nc3ccccc3s2)o1 (centres unmarked)
The AC50 of the first is lower: 1000 to 5000 nM for the first, over 5000 nM for the second.

First: O=C(c1nc(Cl)cs1)N1CCc2[nH]cnc2C1c1nc2c(F)cccc2s1 (centres unmarked)
Second: COCc1cc(C(=O)N2CCc3[nH]cnc3C2c2nc3c(F)cccc3s2)n(C)n1 (centres unmarked)
The AC50 of the first is lower: 1000 to 5000 nM for the first, over 5000 nM for the second.

CC1CN(C(=O)c2cnco2)C(c2nc3c(F)cccc3s2)c2nc[nH]c21 (centres unmarked) and O=C(c1nnc(CCCN2CC(F)C2)o1)N1CCc2[nH]cnc2C1c1nc2ccccc2s1 (centres unmarked) cannot be ordered by AC50: over 5000 nM for the first, over 5000 nM for the second.

Cc1nnc(CC(=O)N2CCc3[nH]cnc3C2c2nc3ccc(F)cc3s2)s1 (centres unmarked) and Cc1nnc(CCC(=O)N2CCc3[nH]cnc3C2c2nc3ccc(F)cc3[nH]2)s1 (centres unmarked) cannot be ordered by AC50: over 5000 nM for the first, over 5000 nM for the second.

O=C(c1cnn2cc(F)ccc12)N1CCc2[nH]cnc2C1c1nc2ccc(F)cc2s1 (centres unmarked) and Cc1nc(-c2ccccn2)sc1C(=O)N1CCc2[nH]cnc2C1c1nc2ccccc2s1 (centres unmarked) cannot be ordered by AC50: over 5000 nM for the first, over 5000 nM for the second.
